Experimental data published in ChEMBL document CHEMBL1201862, “PubChem BioAssay data set” (2004).
“And” between values parts separate entries of the source, which are not always exact repeats. Identical values can stand only once.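 In this assay, cells in 96-well plates receive the compound at five concentrations for 48 hours. Endpoints are linearly interpolated between the surrounding concentrations. Here, GI50 denotes the concentration required for 50% inhibition of growth.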 The source made the active and inactive calls. Rule as the data show it: active = GI50 up to about 1.1 µM and inactive = higher.

Columns and labels:
Experiment in all cases: NCI anticancer screen, dose series, 48 h
[1] = system: SW-620
[2] = system: OVCAR-8
[3] = system: SF-268
[4] = system: ACHN
[5] = system: SNB-19
[6] = system: OVCAR-4
[7] = system: EKVX
[8] = system: NCI-H460
[9] = system: CCRF-CEM
[10] = system: RXF 393
[11] = system: A549
[12] = system: TK-10
[13] = system: HOP-92
[14] = system: UACC-257
[15] = system: M14
[16] = system: Malme-3M
[17] = system: NCI-H522
[18] = system: LOX IMVI
[19] = system: HCT-116
[20] = system: U-251

SMILES	GI50 [1]	GI50 [2]	GI50 [3]	GI50 [4]	GI50 [5]	GI50 [6]	GI50 [7]	GI50 [8]	GI50 [9]	GI50 [10]	GI50 [11]	GI50 [12]	GI50 [13]	GI50 [14]	GI50 [15]	GI50 [16]	GI50 [17]	GI50 [18]	GI50 [19]	GI50 [20]
Cc1cc(=O)n(-c2c(C)cccc2Cl)c(/C=C(\O)c2ccncc2)n1	> 100 µM (inactive)	> 100 µM (inactive)	> 100 µM (inactive)	> 100 µM (inactive)	> 100 µM (inactive)	> 100 µM (inactive)	> 100 µM (inactive)	> 100 µM (inactive)	> 100 µM (inactive)	> 100 µM (inactive)	> 100 µM (inactive)	> 100 µM (inactive)	62.1 µM (inactive)	> 100 µM (inactive)	> 100 µM (inactive)	> 100 µM (inactive)	> 100 µM (inactive)	> 100 µM (inactive)	> 100 µM (inactive)	> 100 µM (inactive)
CC(C)C1=CCC2C(=C1)CCC1C(C)(C(=O)O)CCCC21C (centres undefined)	> 100 µM (inactive)	> 100 µM (inactive)	> 100 µM (inactive)	94.8 µM (inactive)	–	56.8 µM (inactive)	> 100 µM (inactive)	–	> 100 µM (inactive)	> 100 µM (inactive)	> 100 µM (inactive)	> 100 µM (inactive)	> 100 µM (inactive)	> 100 µM (inactive)	> 100 µM (inactive)	> 100 µM (inactive)	> 100 µM (inactive)	> 100 µM (inactive)	> 100 µM (inactive)	> 100 µM (inactive)
CC1=C2C(=CC(C)(CO)C2O)C(=O)C(C)(O)C12CC2 (centres undefined)	0.00142 µM (active)	0.00286 µM (active)	0.00114 µM (active)	0.00152 µM (active)	0.00474 µM (active)	0.00243 µM (active)	0.0103 µM (active)	0.000668 µM (active)	0.00201 µM (active)	0.00163 µM (active)	0.00254 µM (active)	0.00719 µM (active)	0.00255 µM (active)	0.00249 µM (active)	0.00327 µM (active)	0.00361 µM (active)	0.000776 µM (active)	0.00161 µM (active)	0.00123 µM (active)	0.00102 µM (active)
CCCNC(=O)C1C(=O)C(=O)N(CCC)C1=O (centres undefined)	> 100 µM (inactive)	> 100 µM (inactive)	> 100 µM (inactive)	> 100 µM (inactive)	> 100 µM (inactive)	> 100 µM (inactive)	> 100 µM (inactive)	> 100 µM (inactive)	> 100 µM (inactive)	> 100 µM (inactive)	> 100 µM (inactive)	> 100 µM (inactive)	> 100 µM (inactive)	> 100 µM (inactive)	> 100 µM (inactive)	> 100 µM (inactive)	> 100 µM (inactive)	> 100 µM (inactive)	> 100 µM (inactive)	> 100 µM (inactive)
COc1ccc(/C=C2\N/C(=N/N)N=C2Cl)cc1	> 100 µM (inactive)	> 100 µM (inactive)	> 100 µM (inactive)	> 100 µM (inactive)	> 100 µM (inactive)	> 100 µM (inactive)	> 100 µM (inactive)	–	> 100 µM (inactive)	> 100 µM (inactive)	> 100 µM (inactive)	> 100 µM (inactive)	> 100 µM (inactive)	> 100 µM (inactive)	> 100 µM (inactive)	> 100 µM (inactive)	> 100 µM (inactive)	> 100 µM (inactive)	> 100 µM (inactive)	> 100 µM (inactive)
CC(=O)N1CC2Nc3ccccc3C2CC1CO (centres undefined)	> 100 µM (inactive)	> 100 µM (inactive)	> 100 µM (inactive)	> 100 µM (inactive)	> 100 µM (inactive)	> 100 µM (inactive)	> 100 µM (inactive)	> 100 µM (inactive)	> 100 µM (inactive)	> 100 µM (inactive)	> 100 µM (inactive)	> 100 µM (inactive)	> 100 µM (inactive)	> 100 µM (inactive)	> 100 µM (inactive)	> 100 µM (inactive)	> 100 µM (inactive)	> 100 µM (inactive)	> 100 µM (inactive)	> 100 µM (inactive)
Cc1c(C(=O)/C=C/c2ccc3c(c2)OCO3)[n+]([O-])c2ccccc2[n+]1[O-]	37.2 µM (inactive)	23.8 µM (inactive)	52.6 µM (inactive)	35.6 µM (inactive)	56 µM (inactive)	40.6 µM (inactive)	24.7 µM (inactive)	28.4 µM (inactive)	32.9 µM (inactive)	23 µM (inactive)	32.7 µM (inactive)	36.1 µM (inactive)	21.1 µM (inactive)	31 µM (inactive)	28.1 µM (inactive)	89.5 µM (inactive)	15.3 µM (inactive)	26.1 µM (inactive)	29.4 µM (inactive)	30.3 µM (inactive)
N#CC1=C(N)N2C(=O)/C(=C/c3ccccc3O)N=C2S1	> 100 µM (inactive)	> 100 µM (inactive)	41.1 µM (inactive)	> 100 µM (inactive)	> 100 µM (inactive)	44.5 µM (inactive)	51.9 µM (inactive)	–	26.4 µM (inactive)	93.3 µM (inactive)	> 100 µM (inactive)	> 100 µM (inactive)	> 100 µM (inactive)	> 100 µM (inactive)	49.9 µM (inactive)	> 100 µM (inactive)	47.8 µM (inactive)	53.2 µM (inactive)	68.1 µM (inactive)	> 100 µM (inactive)
CCCCOC(=O)/C(CC(=O)C=C(C)C)=N\NS(=O)(=O)c1ccc(C)cc1	–	> 100 µM (inactive)	> 100 µM (inactive)	> 100 µM (inactive)	> 100 µM (inactive)	> 100 µM (inactive)	> 100 µM (inactive)	> 100 µM (inactive)	> 100 µM (inactive)	> 100 µM (inactive)	> 100 µM (inactive)	> 100 µM (inactive)	> 100 µM (inactive)	> 100 µM (inactive)	> 100 µM (inactive)	> 100 µM (inactive)	41.8 µM (inactive)	71.3 µM (inactive)	> 100 µM (inactive)	> 100 µM (inactive)
O=[N+]([O-])C(=C(NCc1ccccc1)NCc1ccccc1)C(Cl)=C(Cl)Cl	36.9 µM (inactive)	36.6 µM (inactive)	20.8 µM (inactive)	21.6 µM (inactive)	28.2 µM (inactive)	31.7 µM (inactive)	51.3 µM (inactive)	37.5 µM (inactive)	23.1 µM (inactive)	28 µM (inactive)	42.7 µM (inactive)	35.9 µM (inactive)	37.3 µM (inactive)	38.1 µM (inactive)	26 µM (inactive)	19 µM (inactive)	37 µM (inactive)	17.4 µM (inactive)	30 µM (inactive)	–
COc1ccc(/C=N/N=C(\N)NO)c(OC)c1OC	46.2 µM (inactive)	15 µM (inactive)	24.7 µM (inactive)	21.2 µM (inactive)	> 100 µM (inactive)	53.7 µM (inactive)	16.6 µM (inactive)	33 µM (inactive)	20 µM (inactive)	30.1 µM (inactive)	13.3 µM (inactive)	71.1 µM (inactive)	11.1 µM (inactive)	–	44.4 µM (inactive)	26.5 µM (inactive)	36.6 µM (inactive)	23.4 µM (inactive)	20.1 µM (inactive)	42.1 µM (inactive)
COC(=O)[C@@H]1CC(C(C[N+](=O)[O-])c2ccc(O[Si](C)(C)C(C)(C)C)cc2)C(=O)N1C(=O)OC(C)(C)C (some centres undefined)	> 100 µM (inactive)	> 100 µM (inactive)	> 100 µM (inactive) and 95.3 µM (inactive)	–	> 100 µM (inactive)	53.6 µM (inactive) and 29.6 µM (inactive)	> 100 µM (inactive) and 61.5 µM (inactive)	–	27.7 µM (inactive) and 18.1 µM (inactive)	29.9 µM (inactive) and 20.6 µM (inactive)	67.6 µM (inactive) and 37.4 µM (inactive)	> 100 µM (inactive)	40.1 µM (inactive) and 61 µM (inactive)	> 100 µM (inactive) and 88.7 µM (inactive)	52.5 µM (inactive)	> 100 µM (inactive) and 97.9 µM (inactive)	53.2 µM (inactive) and 60.5 µM (inactive)	> 100 µM (inactive)	63.1 µM (inactive)	> 100 µM (inactive) and 78 µM (inactive)
Cc1cccc(N(CC(=O)O)S(=O)(=O)c2ccccc2)c1	> 100 µM (inactive)	> 100 µM (inactive)	> 100 µM (inactive)	> 100 µM (inactive)	> 100 µM (inactive)	> 100 µM (inactive)	> 100 µM (inactive)	> 100 µM (inactive)	> 100 µM (inactive)	> 100 µM (inactive)	> 100 µM (inactive)	> 100 µM (inactive)	> 100 µM (inactive)	> 100 µM (inactive)	> 100 µM (inactive)	> 100 µM (inactive)	> 100 µM (inactive)	> 100 µM (inactive)	–	> 100 µM (inactive)
CCOC(=O)C(=O)Nc1ccccc1C	> 100 µM (inactive)	> 100 µM (inactive)	> 100 µM (inactive)	> 100 µM (inactive)	> 100 µM (inactive)	> 100 µM (inactive)	> 100 µM (inactive)	> 100 µM (inactive)	> 100 µM (inactive)	> 100 µM (inactive)	> 100 µM (inactive)	> 100 µM (inactive)	> 100 µM (inactive)	–	> 100 µM (inactive)	> 100 µM (inactive)	> 100 µM (inactive)	> 100 µM (inactive)	> 100 µM (inactive)	> 100 µM (inactive)
